# Source: patent US20250281392A1, “TOPICAL DELIVERY OF EPINEPHRINE AND PRODRUG COMPOSITIONS” (Aquestive Therapeutics, Inc., priority 2024, published 2025)
# Counter-ions that a name gives are not always drawn.
# How the values were obtained:
# [1] = Stability of topical gel formulations (assay and degradant generation at 25° C./60% RH and 40° C./75% RH); assay type: physicochemical; settings: Formulation 1, 5% w/w API; accelerated conditions 40° C./75% RH
# Procedure: An exemplary formulation is provided below.
# Multiple dipivefrin gel formulations were evaluated. Formulations 1-3: API loading ranging from 2.5-10% w/w. Formulation 4: Reduced ethyl alcohol (50%) of original loading. Formulation 5: Reduced diethylene glycol monoethyl ether (50%) of original loading. Formulation 6: Reduced propylene glycol (50%) of original loading.
# The stability of the topical formulation was tested in two assays. Formulation 1 was evaluated with API loading of 5% w/w. Assay trends are directed downward under accelerated conditions (40° C./75% RH)
# Stability trends for a claimed topical formulation (AQEP-09) was evaluated by measuring degradant generation. Formulation 1 was tested with API loading of 5% (% w/w).
# The following formulations are exemplary.
# [2] = tested on: NK cells; experiment: NK activation assay, CD25+CD69+ NK cells by flow cytometry; assay type: cell-based, human; settings: for % inactivation relative to vehicle: human NK % CD25+CD69+ cells; for suppression of activation of NK cells, Epinephrine and Dipivefrin combined for analysis: exceeding IC50 at 70, 140 and 280 nM
# Procedure: IC50 is a measurement of how much of a drug is needed to inhibit a biological process by half.
# Peripheral blood mononuclear cells (PBMC) were isolated over a density gradient from six donor buffy coats and CD56+NK were separated using magnetic selection. Purity of sorted NIK cells was assessed by flow cytometry using CD56 as a marker of NK cells.
# Following magnetic isolation, NK cells were seeded at 5×10^5 NK cells per well in a 48 well plate alongside NK activation beads (prepared as per manufacturer's protocol) at a 1:1 bead to cell ratio, IL-2 (final concentration 500 IU/ml) and either prodrug/epinephrine at 5 different doses (see section 3.6 below for further details), cortisol/dexamethasone (positive controls) or vehicle (media only). NK cells were cultured with the NK activation beads for two days at 37° C. in the presence of 5% CO2. After two days, supernatants were collected from each condition for future TR-FRET analysis (AQV-24-001_AM-1 only, see below) and the remaining cells from each condition were assessed for expression of surface markers CD25, CD69 and for cell viability using eBioscience™ Fixable Viability Dye. Samples were then treated with eBioscience Intracellular Fixation & Permeabilization Buffer Set to allow staining of intracellular granzyme B. Marker expression was determined by flow cytometry and appropriate “Fluorescence-Minus-One controls” controls were used. Flow cytometry data was analysed using FlowJo analysis software and data was graphed using Graph Pad Prism.
# The study was performed in: 3 donors Each experimental condition was tested in: singlicate. For Flow cytometry, viability was measured and cells were phenotyped for NK cell activation (CD25, CD69, granzyme B). Raw and analysed data are provided.
# Each experimental condition was tested in: singlicate. For Flow cytometry, viability was measured and cells were phenotyped for NK cell activation (CD25, CD69, granzyme B). Raw and analysed data are provided. Supernatants were harvested in triplicate per condition and stored until further analysis of IFNγ content by TR-FRET. Data was analysed and graphed. Raw and analysed data are provided. […]
# [3] = Ex vivo permeation and flux of epinephrine prodrug topical gels through porcine ear tissue; assay type: in vitro ADME
# Procedure: Both in vitro and ex vivo permeation was measured for the following formulation. […]
# Exemplary formulations were evaluated including Formulations 1-3, with API loading from 2.5-10% w/w.
# (§1) The claimed topical compositions were tested for permeation using both porcine ear and buccal tissue.
# (§2) The tested tissues were Porcine Ear vs. Buccal Tissue through 24 hours.
# [4] = set-up: species or system Sinclair Nanopigs; settings: in vivo
# Procedure: A study was conducted to evaluate the systemic pharmacokinetic characteristics of Dipivefrin Topical Gel when administered once by topical application to intact, abraded, and wounded skin of Sinclair Nanopigs™. The study design was as follows. Animals were food fasted for at least 8 hours. Animals were monitored until fully recovered. Anesthesia procedures were documented and retained in the study data. The dose formulations were administered to appropriate animals by topical application on the dorsal surface (Dose Site #1) once on Day 1. The dose site was and/or shaved and marked at least one day prior to Day 1. At least the four corners of the dose sites will be marked with indelible ink based on the appropriate dose area. At least the four corners of the tape stripping area were marked with indelible ink for Group 2 and 3 animals. The site for Group 2 and 3 animals was gently abraded via tape stripping (conducted 50 times). All animals will have a uniform topical application using a gloved hand and/or spatula to rub the entire dose amount throughout the total dose area (for 1 minute). Topical application to the dose area for Group 4 animals will include application of the dose amount over the created wounds. If an animal is observed to have test material remaining following the application time, the observation will be documented. Dose formulations will be allowed to equilibrate at ambient temperature for at least 15 minutes prior to and continuously throughout dose administration Prior to dermal (topical) application on Day 1, the dose site for Group 1 to 3 animals were wiped clean with water-moistened gauze or paper towels then wiped dry with dry gauze or paper towels. Following washing and drying, […]. On Day 1, Group 4 animals: The animal backs were prepared for wound creation by performing a surgical scrub. Two (2) wounds were created on the dorsal surface of each Group 4 animal within a 7×7 cm area using an 8 mm punch biopsy. Steps were taken to ensure the area designated for wound creation is within the total dose area (8×8 cm). […]
# [5] = tested on: IL-1b, IL-10; settings: cited from earlier work
# [6] = Ex vivo permeation of ondansetron formulation through dermatomed porcine ear (tissue thickness / tissue type); assay type: in vitro ADME
# Procedure: Referring to FIG. 2A (through 6 hour timepoint) and FIG. 2B (through 24 hour timepoint), dermatome sectioning of the porcine ear was conducted to sample membranes of varying thickness that both capture the complete epidermis and a varying thickness of the dermis. Dermatome sectioning completed at 200 μm, 300 μm, and 400 μm to provide membranes of a varying total thickness.
# As porcine tissue varies with regard to stratum corneum and epidermal thickness as a function of sampling location, multiple sampling locations have been selected for comparison. Dermatome sectioning of multiple porcine tissue samples at a constant thickness. Dermatome sectioning completed at 400 μm. Tissue types evaluated included porcine ear, shoulder, rump, and belly locations
# Referring to FIG. 3A (through 400 minutes) and FIG. 3B (through 1500 minutes), the average amount of ondansetron permeated (in ug) is measured as a function of time. The permeation is measured through varying intact porcine ear tissue types at constant thickness (400 um total thickness). […] Given the comparably low standard deviation and the lack of ondansetron detected in the receiver media at t=0 minutes compared to other tissue types, this tissue type has been selected for continued ex-vivo permeation method development.
# [7] = In vitro permeation and flux of dipivefrin topical gel through CelluSep; assay type: in vitro ADME; settings: 5.0% dipivefrin (w/w) topical gel
# Procedure: Both in vitro and ex vivo permeation was measured for the following formulation. […] Rapid release from the topical gel matrix was observed. Referring to FIG. 4A, the amount permeated (in ug) was measured as a function of time (in minutes). […] The flux (ug/cm^2*min) was measured as a function of time (minutes).
# [8] = human, in vivo
# Procedure: A two-part clinical study was conducted for alopecia areata (AA) patients. AA is an autoimmune disease leading to hair loss on the scalp, face, and in more severe cases, other body areas. The mechanisms leading to AA are multifactorial, including an autoimmune response that results in the loss of hair follicle immune privilege. The patient will be given treatment based on disease severity (>50% involvement—JAK inhibitors; <50% involvement—corticosteroids).
# In Part 1, single ascending doses of a single formulation of AQST-108 were given. […] The 1.0% AQST-108 strength was down-selected to Part 2.
# In Part 2, a single dose of 1 of 3 formulations of 1.0% of AQST-108 was given.
# [9] = Ex vivo permeation and flux of dipivefrin topical gel through buccal tissue; assay type: in vitro ADME, porcine; settings: through 24 hours
# Procedure: as §1, §2
# [10] = male, Wistar Han, rat, in vivo
# Procedure: A study was conducted to evaluate the pharmacokinetics of the claimed composition in a rat model. The purpose of this study was to enable selection of dosing regimen to be used on Passive Cutaneous Anaphylaxis (PCA) model in mammalian subjects. In this study, 15 male rats were studied to model the effects of the claimed composition on passive cutaneous anaphylaxis with a topical route of exposure. […] The Wistar Han rat was chosen as the animal model for this study as it is an appropriate model to study the effects of drug candidates on passive cutaneous anaphylaxis, based on available literature.
# In this study, the pharmaceutical composition was applied on the dorsal side of both ears for groups 2-5 and only on the left ear of group 1 using a gloved finger until absorbed. The topical gel was applied as an even layer with no rubbing required.
# The dark gray bar represents concentration in ng/g after 30 minutes of exposure for both 1% (low dose) and 2.5% (high dose) compositions. The light gray bar represents concentration in ng/g after 60 minutes of exposure for both 1% (low dose) and 2.5% (high dose) compositions.
# [11] = Non-clinical pharmacokinetic study of 2.5% topical gel in minipigs; assay type: in vivo
# Procedure: A non-clinical pharmacokinetic study was also conducted in minipigs. In this study, a 2.5% topical gel was applied at 30 mg/cm2 in 7, 10 and 12% body surface area (BSA) coverage respectively, and data was collected over 6 hours.
# [12] = tested on: TNFα, IL-10; settings: cited from earlier work
# [13] = tested on: Granzyme B; settings: donors 4-6, from 100 μg/ml, versus vehicle control
# Procedure: NK cells were cultured with the NK activation beads for two days at 37° C. in the presence of 5% CO2. […] Samples were then treated with eBioscience Intracellular Fixation & Permeabilization Buffer Set to allow staining of intracellular granzyme B. Marker expression was determined by flow cytometry and appropriate “Fluorescence-Minus-One controls” controls were used. Flow cytometry data was analysed using FlowJo analysis software and data was graphed using Graph Pad Prism.
# CD56+ cells were isolated from three donor buffy coats by magnetic separation. […] Next, the effect of compound addition at different timepoints and doses, following either optimal or suboptimal NK activation was determined by measuring expression of the activation markers CD25, CD69 and Granzyme B on NK cells. […] Treatment was administered at 0, 6, 24 and 30 hours. The controls were 200 nM Cortisol and 500 nM Deuruxolitinib (Jak inhibitor).
# [14] = tissue thickness 200 μm, donor cell empty
# [15] = tissue thickness 400 μm, donor cell filled
compound,measurement,setting,value
"CNCC(O)c1ccc(OC(=O)C(C)C)c(OC(=O)C(C)C)c1 (stereo not drawn) [AQEP-09, Dibutepinephrine]","degradant formation trends (epinephrine, PD-15, RRT 1.80)",[1],directed upward
C[C@]12CCC(=O)C=C1CC[C@@H]1[C@@H]2[C@@H](O)C[C@@]2(C)[C@H]1CC[C@]2(O)C(=O)CO [Cortisol],% inactivation relative to vehicle,[2]; 200 nM,39%
C[C@@H]1C[C@H]2[C@@H]3CCC4=CC(=O)C=C[C@]4(C)[C@@]3(F)[C@@H](O)C[C@]2(C)[C@@]1(O)C(=O)CO [Dexamethasone],% inactivation relative to vehicle,[2]; 200 nM,22%
same,% inactivation relative to vehicle,[2]; 1 μM,19%
CNCC(O)c1ccc(OC(=O)C(C)(C)C)c(OC(=O)C(C)(C)C)c1 (stereo not drawn) [Dipivefrin HCl],ex vivo permeation through porcine ear tissue,"[3]; topical gel containing 0.5% or 5.0% (w/w) dipivefrin HCl, 400 μm tissue",Significant permeation
CNC[C@H](O)c1ccc(O)c(O)c1 [Epinephrine],"wounded to intact skin ratio for Cmax, epinephrine plasma","[4]; Sinclair Nanopig, pig, topical or ocular",3.90
same,"PK parameters in plasma, intact skin versus abraded skin",[4],no significant difference
same,serum concentrations of IL-10,[5]; humans,increases serum concentrations
same,serum concentrations of IL-1b,[5]; septic patients following treatment,decreased serum concentrations of IL-1b
same,CD25+CD69+ NK cells compared to vehicle,"[2]; 5 doses, 6 donors (donor 1 removed)",consistent reduction
same,% inactivation relative to vehicle,[2]; 500 nM,65%
same,% inactivation relative to vehicle,[2]; 1000 nM,61%
same,% inactivation relative to vehicle,[2]; 2500 nM,51%
same,"suppression of activation of NK cells, Epinephrine and Dipivefrin combined for analysis",[2]; range of concentrations,effective suppression
Cc1nccn1CC1CCc2c(c3ccccc3n2C)C1=O (stereo not drawn) [Ondansetron],"Amount Ondansetron Permeated, 6 hours",[6]; [14],21.2 (±2.5) μg
same,"Amount Ondansetron Permeated, 24 hours",[6]; [14],542.4 (±74.3) μg
same,"Amount Ondansetron Permeated, 6 hours",[6]; [15],5.7 (±3.9) μg
same,"Amount Ondansetron Permeated, 24 hours",[6]; [15],43.8 (±19.4) μg
CNC[C@H](O)c1ccc(OC(=O)C(C)(C)C)c(OC(=O)C(C)(C)C)c1 [dipivefrin],in vitro release from the topical gel matrix (permeation and flux),[7],Rapid release
same,"PK parameters in plasma, intact skin versus abraded skin",[4],no significant difference
same,AQST-108 plasma concentrations,[8],No AQST-108 plasma concentrations
same,serious adverse events (SAE) or topical adverse events (AE),[8],No serious adverse events
same,systemic epinephrine concentrations,[8],within normal physiologic range
same,permeation through buccal tissue versus porcine ear,[9],reduced dipivefrin permeation
same,duration of epinephrine exposure,[10],> 1 h
same,duration of high exposure in dermis and epidermis,"[11]; 30 mg/cm2, 7, 10 and 12% BSA",more than 6 hours
same,systemic exposure,[11]; high body surface area coverage,no systemic exposure
same,% inactivation relative to vehicle,[2]; 500 nM,67%
same,% inactivation relative to vehicle,[2]; 1000 nM,68%
same,% inactivation relative to vehicle,[2]; 2500 nM,66%
same,"suppression of activation of NK cells, Epinephrine and Dipivefrin combined for analysis",[2]; range of concentrations,effective suppression
same,modulation of NK cell activity,"[2]; range of concentrations, exceeding IC50 at 140 and 280 nM",effectively deactivated NK cells
same,permeation as a function of API loading,"[3]; topical gel, 2.5% to 10% API loading, 24 hours",Dose proportional increases in permeation
NC[C@H](O)c1ccc(O)c(O)c1 [norepinephrine],IL-10 secretion,[12],inducing rapid IL-10 secretion
same,TNFα,[12],potently suppresses
dipivefrin,Median Fluorescence Intensity (MFI) of Granzyme B,[13],decreasing to some extent
same,reduction of NK cell activation as compared to control,"[2]; doses up to 5 ng/mL, comparable to 20 nM Cortisol",about 12%
same,reduction in CD25+CD69+ NK cells compared to vehicle control,"[2]; higher doses, donors 4-6",5-12%
same,reduction in CD25+CD69+ NK cells compared to vehicle control,"[2]; lower doses, donors 2-3",7-12%
